What was measured:
[1] = biological target: T1, TEC (Homo sapiens, UniProt P42680); assay: TEC kinase profiling (BTK protocol); format: biochemical; conditions: for IC50: 10 dose IC50; for TEC @ 0.3 μM (% Inh): 0.3 μM compound
T1 construct: purchased Reaction Biology Corporation
T1 sequence (P42680 1-631): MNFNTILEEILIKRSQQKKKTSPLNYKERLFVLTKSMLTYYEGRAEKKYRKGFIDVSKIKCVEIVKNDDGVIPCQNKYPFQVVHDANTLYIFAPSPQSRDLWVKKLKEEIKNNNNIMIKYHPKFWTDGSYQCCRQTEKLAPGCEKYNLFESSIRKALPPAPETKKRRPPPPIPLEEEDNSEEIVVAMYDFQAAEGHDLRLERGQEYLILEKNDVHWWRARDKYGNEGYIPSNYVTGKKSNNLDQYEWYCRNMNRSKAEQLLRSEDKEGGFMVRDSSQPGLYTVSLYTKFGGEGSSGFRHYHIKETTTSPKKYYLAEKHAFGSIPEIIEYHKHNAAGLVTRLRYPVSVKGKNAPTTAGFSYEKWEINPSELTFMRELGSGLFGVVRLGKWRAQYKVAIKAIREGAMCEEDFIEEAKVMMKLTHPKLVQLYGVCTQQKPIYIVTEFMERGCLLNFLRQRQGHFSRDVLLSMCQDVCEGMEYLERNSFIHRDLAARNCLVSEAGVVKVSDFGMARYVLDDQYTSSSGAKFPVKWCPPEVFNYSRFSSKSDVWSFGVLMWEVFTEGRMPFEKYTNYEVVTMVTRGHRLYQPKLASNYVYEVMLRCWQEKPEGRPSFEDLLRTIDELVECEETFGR
Procedure: BTK assay: In vitro profiling protein kinases was performed using the “HotSpot” assay platform. Briefly, specific kinase/substrate pairs along with required cofactors were prepared in reaction buffer. Compounds were prepared as 10 mM stock solutions in DMSO. Compounds were delivered into the reaction, followed 15-20 minutes later by addition of a mixture of ATP (Sigma, St. Louis Mo.) and ^33P ATP (Perkin Elmer, Waltham Mass.) to a final concentration of 10 μM. […] IC50 values and curve fits were obtained using Prism (GraphPad Software). Buffer Conditions: 20 mM Hepes (pH 7.5), 10 mM MgCl2, 1 mM EGTA, 0.02% Brij35, 0.02 mg/mL BSA, 0.1 mM Na3VO4, 2 mM DTT, 1% DMSO.

[2] = system: CD69+B220+ cells; assay: B cell activation assay (IgD-stimulated splenocytes, CD69+B220+ cells by FACS); format: cell-based; conditions: IgD 3 μg/mL, 4 h; for CD69 @ 100 nM (% Inh): 100 nM compound, mouse splenocytes
Outline: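 Mouse splenocytes (female, ~2 months), red cells lysed, at 10^6 cells/mL, pretreated 30 min at 37 °C with 100 nM compound, then anti-IgD 3 μg/mL for 4 h. Read as CD69+B220+ cells as percentage of live B220+ cells by flow cytometry.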

[3] = biological target: T2, PI3Kδ (Homo sapiens, UniProt O00329); assay: PI3Kδ kinase assay (HTRF, PIP3 detection); format: biochemical; conditions: for PI3Kδ @ 0.1 μM (% Inh): 0.1 μM compound; for PI3Kδ @ 0.1 μM (% Inh) / PI3Kδ @ 1 μM (% Inh) / PI3Kδ @ 0.01 μM (% Inh): 10 μM ATP; for IC50: 10 dose IC50, 10 μM ATP; for PI3Kδ @ 1 μM (% Inh): 1 μM compound; for PI3Kδ @ 0.01 μM (% Inh): 0.01 μM compound
T2 construct: purchased Reaction Biology Corporation
Outline: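 10-dose HTRF assay; kinase preincubated with compound 10 min at RT, then reacted with 10 μM PIP2 and 10 μM ATP for 30 min at 30 °C in HEPES pH 7.0 buffer. PIP3 product displaces biotin-PIP3 from the Eu/APC complex; signal converted to PIP3 via standard curve, IC50 by nonlinear regression.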

T2 sequence (O00329 whole entry): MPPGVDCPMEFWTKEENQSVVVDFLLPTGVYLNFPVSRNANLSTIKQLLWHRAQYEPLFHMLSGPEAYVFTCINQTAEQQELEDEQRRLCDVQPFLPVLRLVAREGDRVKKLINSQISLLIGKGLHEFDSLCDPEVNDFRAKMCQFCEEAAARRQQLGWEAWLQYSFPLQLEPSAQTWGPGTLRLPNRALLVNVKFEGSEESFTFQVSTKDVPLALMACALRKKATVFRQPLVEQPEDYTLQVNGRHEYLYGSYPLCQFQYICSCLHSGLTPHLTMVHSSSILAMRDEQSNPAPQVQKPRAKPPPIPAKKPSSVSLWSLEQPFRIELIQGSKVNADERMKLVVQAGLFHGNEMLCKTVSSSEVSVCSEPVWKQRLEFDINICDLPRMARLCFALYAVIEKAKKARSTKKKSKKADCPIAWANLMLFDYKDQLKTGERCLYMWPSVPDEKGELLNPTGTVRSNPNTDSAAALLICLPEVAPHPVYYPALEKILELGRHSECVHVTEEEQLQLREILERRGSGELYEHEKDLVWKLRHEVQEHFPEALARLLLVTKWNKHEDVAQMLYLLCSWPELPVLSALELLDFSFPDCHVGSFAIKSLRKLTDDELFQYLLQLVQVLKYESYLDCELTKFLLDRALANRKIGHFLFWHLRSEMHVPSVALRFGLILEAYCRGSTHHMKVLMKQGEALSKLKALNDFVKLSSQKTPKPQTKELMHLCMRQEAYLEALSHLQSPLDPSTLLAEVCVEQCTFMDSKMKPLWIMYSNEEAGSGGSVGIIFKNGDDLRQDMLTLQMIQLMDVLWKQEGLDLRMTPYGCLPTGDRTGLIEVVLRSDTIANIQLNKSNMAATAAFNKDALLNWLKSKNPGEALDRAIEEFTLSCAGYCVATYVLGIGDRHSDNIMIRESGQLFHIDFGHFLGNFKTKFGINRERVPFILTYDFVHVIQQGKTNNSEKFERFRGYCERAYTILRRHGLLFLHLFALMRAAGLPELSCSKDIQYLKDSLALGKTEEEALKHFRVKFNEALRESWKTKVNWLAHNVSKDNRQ
T2 sequence (P27986 whole entry partner): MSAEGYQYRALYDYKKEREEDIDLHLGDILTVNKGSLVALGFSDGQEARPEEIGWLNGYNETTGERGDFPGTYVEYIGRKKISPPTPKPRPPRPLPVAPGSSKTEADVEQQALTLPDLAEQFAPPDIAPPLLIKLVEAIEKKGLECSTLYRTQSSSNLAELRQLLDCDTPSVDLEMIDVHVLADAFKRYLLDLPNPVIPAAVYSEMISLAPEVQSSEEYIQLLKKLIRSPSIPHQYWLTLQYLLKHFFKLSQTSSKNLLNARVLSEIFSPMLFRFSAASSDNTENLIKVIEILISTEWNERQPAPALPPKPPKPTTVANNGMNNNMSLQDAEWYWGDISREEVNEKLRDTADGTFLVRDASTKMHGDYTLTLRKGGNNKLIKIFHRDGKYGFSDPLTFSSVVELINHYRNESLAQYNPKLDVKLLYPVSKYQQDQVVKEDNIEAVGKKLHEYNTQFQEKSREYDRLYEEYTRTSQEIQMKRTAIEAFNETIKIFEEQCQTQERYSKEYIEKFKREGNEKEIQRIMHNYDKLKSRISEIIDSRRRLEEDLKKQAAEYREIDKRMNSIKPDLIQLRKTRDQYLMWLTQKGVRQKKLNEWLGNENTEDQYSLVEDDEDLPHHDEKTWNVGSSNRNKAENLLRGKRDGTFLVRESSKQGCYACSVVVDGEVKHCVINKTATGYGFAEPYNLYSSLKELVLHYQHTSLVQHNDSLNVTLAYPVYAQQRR

Row | Compound | IC50 [1] | CD69 @ 100 nM (% Inh) ([2]; 0.1 µM) | PI3Kδ @ 0.1 μM (% Inh) [3] | IC50 [3] | TEC @ 0.3 μM (% Inh) [1] | CD69 @ 100 nM (% Inh) [2] | PI3Kδ @ 1 μM (% Inh) [3] | PI3Kδ @ 0.01 μM (% Inh) [3] | IC50 ([2]; Mus musculus, Splenocyte)
1 | Nc1ncnc2c1c(-c1ccc(F)c(O)c1)nn2C1CCc2ccccc2C1 (single isomer, unassigned) [Compound No. 26b, 5-(4-amino-1-(1,2,3,4-tetrahydronaphthalen-2-yl)-1H-pyrazolo[3,4-d]pyrimidin-3-yl)-2-fluorophenol] | 82.1 nM | 11.62 ± 20.93 (n = 5) % Inh | 47.94 % Inh | 55.2 nM | – | – | – | – | –
2 | COc1ccc(-c2nn(C3Cc4ccccc4C3)c3ncnc(N)c23)cc1O [Compound No. 68, 5-[4-amino-1-(2,3-dihydro-1H-inden-2-yl)-1H-pyrazolo[3,4-d]pyrimidin-3-yl]-2-methoxyphenol] | – | – | 57.97 % Inh | 32.1 nM | 42.69 % Inh | 44.83 ± 29.77 (n = 6) % Inh | 87.4 % Inh | – | –
3 | Nc1ncnc2c1c(-c1ccc3cc[nH]c3c1)nn2C1CCc2ccccc2C1 (racemic) [compound 18, 3-(1H-indol-6-yl)-1-(1,2,3,4-tetrahydronaphthalen-2-yl)-1H-pyrazolo[3,4-d]pyrimidin-4-amine] | – | – | 18.95 % Inh | 108 nM | 10.01 % Inh | 13.22 ± 11.84 (n = 5) % Inh | – | – | –
4 | Nc1ncnc2c1c(-c1ccc(Cl)c(O)c1)nn2C1Cc2ccccc2C1 [Compound No. 56, 5-[4-amino-1-(2,3-dihydro-1H-inden-2-yl)-1H-pyrazolo[3,4-d]pyrimidin-3-yl]-2-chlorophenol] | – | – | 69.44 % Inh | 33.2 nM | 61.02 % Inh | 20.57 ± 19.79 (n = 9) % Inh | 99.12 % Inh | – | –
5 | Nc1ncnc2c1c(-c1ccc(F)c(O)c1)nn2C1Cc2ccccc2C1 [Compound No. 29, 5-(4-amino-1-indan-2-yl-pyrazolo[3,4-d]pyrimidin-3-yl)-2-fluoro-phenol] | 20.5 nM | – | 61.73 % Inh | 61.3 nM | – | 17.76 ± 20.69 (n = 9) % Inh | – | – | –
6 | Nc1ncnc2c1c(-c1cc(O)c(F)c(F)c1)cn2C1Cc2ccccc2C1 [Compound No. 101, 5-[4-amino-7-(2,3-dihydro-1H-inden-2-yl)-7H-pyrrolo[2,3-d]pyrimidin-5-yl]-2,3-difluorophenol] | – | – | 62.53 % Inh | 62.1 nM | 91.2 % Inh | −12.35 ± 33.92 (n = 5) % Inh | – | 26.61 % Inh | –
7 | Nc1ncnc2c1c(-c1cc(O)c(Cl)c(Cl)c1)cn2C1Cc2ccccc2C1 [Compound No. 107, 5-[4-amino-7-(2,3-dihydro-1H-inden-2-yl)-7H-pyrrolo[2,3-d]pyrimidin-5-yl]-2,3-dichlorophenol] | – | – | – | 12.9 nM | 87.72 % Inh | −0.20 ± 16.10 (n = 3) % Inh | – | – | –
8 | Nc1ncnc2c1c(-c1cc(F)c3c(c1)NCCO3)nn2C1Cc2ccccc2C1 [Compound No. 84, 1-(2,3-dihydro-1H-inden-2-yl)-3-(8-fluoro-3,4-dihydro-2H-1,4-benzoxazin-6-yl)-1H-pyrazolo[3,4-d]pyrimidin-4-amine] | – | – | 53.06 % Inh | 34.8 nM | 23.9 % Inh | 47.61 ± 24.72 (n = 15) % Inh | 88.36 % Inh | – | 154 nM
9 | N#Cc1cc(-c2cn(C3Cc4ccccc4C3)c3ncnc(N)c23)cc(O)c1F [compound 115, 5-[4-amino-7-(2,3-dihydro-1H-inden-2-yl)-7H-pyrrolo[2,3-d]pyrimidin-5-yl]-2-fluoro-3-hydroxybenzonitrile] | – | – | 93.12 % Inh | 1.9 nM | 48.29 % Inh | 44.51 ± 5.23 (n = 3) % Inh | – | 82.64 % Inh | –
10 | Nc1ncnc2c1c(-c1cc(O)c(F)c(Cl)c1)cn2C1Cc2ccccc2C1 [compound 110, 5-[4-amino-7-(2,3-dihydro-1H-inden-2-yl)-7H-pyrrolo[2,3-d]pyrimidin-5-yl]-3-chloro-2-fluorophenol] | – | – | 76.2 % Inh | 11.9 nM | 89.37 % Inh | −11.51 ± 15.89 (n = 3) % Inh | – | 40.85 % Inh | –

From patent US20210317140A1, “Heterocyclic Compounds and Methods of Use” (MEDIVATION TECHNOLOGIES, INC, priority 2013, published 2021)
